Values of other authors in patent US20080274094A1, “Molecular Complex Comprising Arbutine, Ascorbic Acid, Oleuropeina or Its Derivatives Thereof and Related Uses In Medical Field” (MED CARE S.R.L., priority 2005, published 2008).

How the values were obtained:
[1] = test system: cultured human melanocytes; settings: Pigment Cell Res. 1998; mechanism other than induction of tyrosinase activity
[2] = test system: TNF alpha receptors; settings: Biochem Pharmacol 1999, Mancini et al.

| Compound | pigmentation of cultured human melanocytes [1] | effect on TNF alpha receptors [2] |
| --- | --- | --- |
| OC[C@H]1O[C@@H](Oc2ccc(O)cc2)[C@H](O)[C@@H](O)[C@@H]1O [Arbutin] | increases the pigmentation |  |
| Cc1ccc(C(=O)Nc2ccc(S(=O)(=O)O)c3cc(S(=O)(=O)O)cc(S(=O)(=O)O)c23)cc1NC(=O)c1cccc(NC(=O)Nc2cccc(C(=O)Nc3cc(C(=O)Nc4ccc(S(=O)(=O)O)c5cc(S(=O)(=O)O)cc(S(=O)(=O)O)c45)ccc3C)c2)c1 [suramin] |  | inhibitory effect |
